One may read the IC50 as the concentration needed to halve the response being measured. Lower therefore signals inhibition by little substance.

Results on 21 compounds are retold here after patent US5624935A, “Heterocyclic compounds having anti-diabetic activity and their use” (Sankyo Company, Limited, priority 1994, dated 1997).

One data set has as its system blood glucose level. Kind of data set: Hypoglycemic activity in hyperglycemic KK mice. It is filed as in vivo, hyperglycemic male mice of the KK strain. Conditions: Mus musculus, oral, 18 hours, vs solvent-only group, read-out: Hypoglycemic effect. On the procedure: The test animals used were hyperglycemic male mice of the KK strain, each having a body weight of at least 40 g. The compounds under test were mixed with a 1:1 by volume mixture of polyethylene glycol 400 and water. Each animal was orally administered a test compound in the amount shown in the following Table 6 and then allowed to feed freely for 18 hours. At the end of this time, blood was collected from the tail veins without anesthesia. The blood glucose level (BGL) was determined by means of a glucose analyzer (GL-101, manufactured by Mitsubishi Kasei Co. or a Glucoroder-F manufactured by Shino Test Co.).
The hypoglycemic effect was calculated by the following equation: [formula] where: BGLs is the blood glucose level in the group administered a solvent only, but no active compound; and
BGLt is the blood glucose level in the group administered a test compound.
The results are shown in the following Table 6, in which each compound of the present invention is identified by the number of one of the following Examples in which its preparation is illustrated.

The target in data set [1] is T1, Bovine lens aldose reductase (Bos taurus, UniProt P16116).
T1 construct: Bovine lens aldose reductase was separated and partially purified; from tissue; host or cells: bovine lens
Kind of data set: Inhibition of Aldose reductase. In kind it is biochemical. Conditions: for inhibition at 5 µg/mL: read-out: Inhibition at 5 μg/ml. As to the method:
Bovine lens aldose reductase was separated and partially purified by the method of S. Hyman and J. H. Kinoshita [J. Biol. Chem., 240, 877 (1965)] and K. Inagaki, I. Miwa and J. Okuda [Arch. Biochem. Biophys., 316, 337 (1982)], and its activity was determined photometrically by the method of Varma et al. [Biochem. Pharmac., 25, 2505 (1976)]. Inhibition of enzyme activity was measured for the compounds of the present invention at a concentration of 5 μg/ml, and the measured values were used to calculate the IC50 values.

In the next data set the test system is male F344 rats. Kind of data set: Toxicity, 2 weeks oral in rats. In kind it is in vivo. The following applies: for mortality rate: oral, 50 mg/kg per day, 2 weeks, male F344 rats; for abnormalities which could be attributed to the test compounds: rat, in vivo, po, 50 mg/kg/day. On the procedure:
The toxicity of the compounds of the present invention was tested on male F344 rats, divided into groups of 5. The test compound was adminstered orally to each test animal at a dose of 50 mg/kg of body weight per day for 2 weeks. The test compounds used were those of Examples 7 and 17 .

In the case of `O=C1NC(=O)C(Cc2ccc(OCCn3cc(C(c4ccccc4)(c4ccccc4)c4ccccc4)c4ccccc43)cc2)S1` (stereo not drawn) [Example 5, 5-{4-[2-(3-Triphenylmethylindol-1-yl)ethoxyl]-benzyl}thiazolidine-2,4-dione], the inhibition in vivo at 10 mg/kg with blood glucose level came to 16.2%.

`O=C1NC(=O)C(Cc2ccc(OCCn3ccc4ccccc43)cc2)S1` (stereo not drawn) [Example 6, 5-{4-[2-(Indol-1-yl)ethoxy]benzyl}thiazolidine-1-dione]: the inhibition in vivo at 10 mg/kg with blood glucose level came out at 20.9%. Moreover, in data set [1], the inhibition at 5 µg/mL worked out at 47%.

`Cn1c(COc2ccc(CC3SC(=O)NC3=O)cc2)cc2ccccc21` (stereo not drawn) [Example 10, 5-[4-(1-Methylindol-2-ylmethoxy)benzyl]thiazolidine-2,4-dione]: in the data set with blood glucose level, the inhibition in vivo at 1 mg/kg was found to be 11.6%.

Take `Cn1c(COc2ccc(CC3SC(=O)NC3=O)cc2)nc2cnccc21` (stereo not drawn) [Example 25]: in data set [1], half-maximal inhibition (IC50) required 2.42 µM and the inhibition at 5 µg/mL was determined as 81.6%.

On to `O=C1NC(=O)C(Cc2ccc(OCC3Cc4ccccc4N3)cc2)S1` (stereo not drawn) [Example 1, 5-[4-(Indolin-2-ylmethoxy)benzyl]thiazolidine-2,4-dione], for which the inhibition in vivo at 10 mg/kg in the data set with blood glucose level is 13.2%. Further, the inhibition at 5 µg/mL in data set [1] was determined as 54.5%.

In data set [1], `CCn1c(COc2ccc(CC3SC(=O)NC3=O)cc2)nc2cccnc21` (stereo not drawn) [Example 12, 5-{4-(3-Ethyl-3H-imidazo[4,5-b]pyridin-2-ylmethoxy)-benzyl}thiazolidine-2,4-dione] had an IC50 of 4.45 µM.

As for `Cn1c(CCCOc2ccc(CC3SC(=O)NC3=O)cc2)nc2cccnc21` (stereo not drawn) [Example 14, 5-[4-{3-(3-Methyl-3H-imidazo[4,5-b]pyridin-2-yl)-propoxy}-benzyl]thiazolidine-2,4-dione], the inhibition at 5 µg/mL in data set [1] is 53.9%.

Turning to `Cn1c(COc2ccc(CC3SC(=O)NC3=O)cc2)nc2ncccc21` (stereo not drawn) [Example 13], the inhibition in vivo at 1 mg/kg with blood glucose level is 34%. Further, in data set [1], the 50% inhibitory concentration (IC50) was 7.06 µM.

Consider `Cn1c(COc2ccc(CC3SC(=O)NC3=O)cc2)nc2cccnc21` (stereo not drawn) [Example 7, 5-{4-(3-Methyl-3H-imidazo[4,5-b]pyridin-2-methoxyl)-benzyl}thiazolidine-2,4-dione], for which the inhibition in vivo at 1 mg/kg in the data set on blood glucose level was 24.7%. This compound also showed an IC50 in data set [1] of 2.71 µM. In the data set with male F344 rats, the mortality rate result is on record as “zero” and the “abnormalities which could be attributed to the test compounds” value is reported as “no abnormalities”.

`CN1c2ccccc2CC1COc1ccc(CC2SC(=O)NC2=O)cc1` (stereo not drawn) [Example 2, 5-[4-(1-Methylidolin-2-ylmethoxy)benzyl]thiazolidine-2,4-dione]: the inhibition in vivo at 1 mg/kg in the data set with blood glucose level was found to be 27.7%. In data set [1], the midpoint of inhibition, the IC50, lay at 8.68 µM and the inhibition at 5 µg/mL is 58.1%.

Take `O=C1NC(=O)C(Cc2ccc(OCc3nc4cccnc4n3-c3ccccc3)cc2)S1` (stereo not drawn) [Example 27]: in data set [1], half-maximal inhibition (IC50) required 1.97 µM and the inhibition at 5 µg/mL amounted to 91.8%.

Regarding `O=C1NC(=O)C(Cc2ccc(OCc3nc4cccnc4n3Cc3ccc(Cl)cc3)cc2)S1` (stereo not drawn) [Example 20, 5-(4-{3-(4-Chlorobenzyl)-3H-imidazo[4,5-b]pyridin-2-ylmethoxyl}benzyl)thiazolidine-2,4-dione], the inhibition in vivo at 1 mg/kg in the data set with blood glucose level amounted to 24.5%. Further, in data set [1], the concentration for half-maximal inhibition (IC50) is 3.76 µM and the inhibition at 5 µg/mL was 61.6%.

In the case of `Cn1c(COc2ccc(CC3SC(=O)NC3=O)cc2)nc2cc(Cl)cnc21` (stereo not drawn) [Example 23, 5-{4-(6-Chloro-3-methyl-3H-imidazo[4,5-b]pyridin-2-ylmethoxy)benzyl}thiazolidine-2,4-dione], the inhibition in vivo at 1 mg/kg in the data set with blood glucose level worked out at 21.7%. Besides, in data set [1], the IC50 is 3.23 µM and the inhibition at 5 µg/mL was found to be 94.9%.

Regarding `O=C1NC(=O)C(Cc2ccc(OCCc3c[nH]c4ccccc34)cc2)S1` (stereo not drawn) [Example 4, 5-{4-[2-(Indol-3-yl)ethoxy]benzyl}thiazolidine-2.4dione], half-maximal inhibition in data set [1] (IC50) was put at 6.28 µM.

For the compound `O=C1NC(=O)C(Cc2ccc(OCc3cn4ccccc4n3)cc2)S1` (stereo not drawn) [Example 9, 5-{4-(Imidazo[1,2-a]pyridin-2-ylmethoxy)benzyl}-thiazolidine2,4-dione], the inhibition in vivo at 10 mg/kg in the data set with blood glucose level came to 27.6%. Also, the inhibition at 5 µg/mL in data set [1] worked out at 53.3%.

For the compound `O=C1NC(=O)C(Cc2ccc(OCc3nc4ncccc4[nH]3)cc2)S1` (stereo not drawn) [Example 15, 5-{4-(1H-Imidazo[4,5-b]pyridin-2-ylmethoxy)benzyl}-thiazolidine-2,4-dione], in the data set with blood glucose level, the inhibition in vivo at 1 mg/kg stood at 13.8%. Moreover, in data set [1], the IC50 is 6.77 µM.

On to `Cn1c(COc2ccc(CC3SC(=O)NC3=O)cc2)nc2cc(C(F)(F)F)cnc21` (stereo not drawn) [Example 18, 5-{4-(3-Methyl-6-trifluoromethyl-3H-imidazo[4,5-b]pyridin-2-ylmethoxy)benzyl}thiazolidine-2,4-dione], for which, in data set [1], 2.02 µM corresponded to half-maximal inhibition (IC50) and the inhibition at 5 µg/mL is 76.3%.

Regarding `Cn1c(COc2ccc(CC3SC(=O)NC3=O)cc2)nc2ccc(Cl)nc21` (stereo not drawn) [Example 17, 5-{4-(5-Chloro-3-methyl-3H-imidazo[4,5-b]pyridin-2-ylmethoxy)benzyl}thiazolidine-2,4-dione], the inhibition in vivo at 1 mg/kg with blood glucose level is 37.1%. The compound further showed an IC50 in data set [1] of 4.47 µM. In addition, in the data set on male F344 rats, the mortality rate entry was “zero” and the “abnormalities which could be attributed to the test compounds” value is on record as “no abnormalities”.

For the compound `Cn1c(COc2ccc(CC3SC(=O)NC3=O)cc2)nc2cc(Br)cnc21` (stereo not drawn) [Example 22, 5-{4-(6-Bromo-3-methyl-3H-imidazo[4,5-b]pyridin-2-ylmethoxy)benzyl}thiazolidine-2,4-dione], in the data set with blood glucose level, the inhibition in vivo at 1 mg/kg was found to be 10.2%. In data set [1], 4.02 µM corresponded to half-maximal inhibition (IC50) and the inhibition at 5 µg/mL was 77.2%.

Turning to `O=C1NC(=O)C(Cc2ccc(OCCN3CCc4ccccc43)cc2)S1` (stereo not drawn) [Example 3, 5-{4-[2-(Indolin-1-yl)ethoxyl]benzyl}thiazolidine-2,4-dione], the inhibition in vivo at 10 mg/kg in the data set with blood glucose level was 27%. Further, half-maximal inhibition in data set [1] (IC50) required 10 µM.

With `Cc1ccnc2c1nc(COc1ccc(CC3SC(=O)NC3=O)cc1)n2C` (stereo not drawn) [Example 16, 5-{4-(3,7-Dimethyl-3H-imidazo[4,5-b]pyridin-2-ylmethoxy)benzyl}thiazolidine-2,4-dione], in data set [1], the IC50 is 9.67 µM and the inhibition at 5 µg/mL was 59.1%.
